From patent US5721106A, “In Vitro method for screening β-amyloid deposition” (Regents of the University of Minnesota, priority 1994, dated 1998)
Ends that are not written are not given here.

Columns and labels:
adult rat brain = test: Binding of radiolabelled rat β-amyloid peptide to rat brain
AD plaques = test: Deposition of ^125 I-labelled β-amyloid peptides onto plaques in AD brain tissue (homogenate binding, autoradiography); set-up: species or system human
Description: Fragments labelled in accordance with the method described herein can be combined with amyloid plaque derived from Alzheimer's disease tissue or other amyloid substance such as silk, and tested for activity, for example, their ability to deposit on these materials.
Brain tissue was obtained form normal and Alzheimer's disease patients at 0.5 to 14 hours postmortem, frozen on dry ice after collection, and stored at -20° C. until use. For filter binding studies, tissue homogenates were prepared after the method of H. P. Too and M. R. Hanley, Biochem. J. 252:545 (1988), the disclosure of which is incorporated by reference herein. Tissue was homogenized (Polytron, setting 7-8, 5-10 sec) in 5-10 volumes of 50 mM Tricine (pH 7.5) containing 10% sucrose and protease inhibitors (0.01% bacitracin, 0.002% soybean trypsin inhibitor, 0.0002% chicken egg trypsin inhibitor, 1 mM benzamidine hydrochloride) and pelleted at 10,000 g for 20 minutes. The homogenate was then resuspended and washed several times in Tricine buffer containing 120 mM NaCl, 10 mM EDTA, 300 mM KCl and centrifuged at 40,000 g for 20 minutes and stored at -20° C. for less than two months. Membranes (equivalent to about 30 mg tissue) were resuspended in 0.5 ml 50 mM TrisHCl (pH 7.5) containing 1 mg/ml bovine serum albumin (BSA), 10 mM MnCl2, 0.004% bacitracin, 0.002% chymostatin, 0.004% leupeptin, 0.1% dimethylsulfoxide for 30 minutes prior to addition of the radioligand (10^-11 to 10^-9 M) and various concentrations of unlabelled peptides in the same buffer.
After incubating for two hours at room temperature, the homogenates (final volume 0.575 ml) were filtered through glass fiber filters (Whatman GF/D), presoaked for at least two hours in 1 mg/ml BSA and rinsed with 25 mM Tricine (pH 7.5). After washing twice with 25 mM TrisHCl (pH 7.5) at room temperature, the filters were counted in a gamma counter.
For tissue autoradiography, unfixed tissue was serially sectioned at 5-15 μm and thaw-mounted onto gelatin-coated slices. Slide-mounted sections were stored at -20° C. in closed boxes over desiccant for less than three months before use. Sections were preincubated for 30 minutes and incubated with the radioligand for two hours under the same conditions according to the aforedescribed homogenate binding study. Alternatively, 50 mM TrisHCl rather than Tricine may be used as the buffer. For estimating nonspecific binding, paired serial sections were incubated with the radioligand in the presence of a 10^4 to 10^5 fold excess of the unlabelled peptide. Following incubation with the radioligand, the slides were washed with 50 mM TrisHCl pH 7.5 (four times, two minutes each at 4° C.), then dried at 4° C. and stored in closed boxes over desiccant at room temperature overnight. The fully dried slides were then placed in apposition to tritium-sensitive film alongside iodinated standards. After one week's exposure at -20° C., the film was developed, fixed and washed. […] This approach generated film autoradiograms for quantitative densitometry,a high resolution emulsion autoradiograms for detailed histology, and a counterstained section for identification of cell types from each tissue section.
Briefly peptides were purchased or synthesized by fluorenemethoxycarbonyl chemistry on polystyrene resins, using acid-labile blocking groups for sidechain protection, cleaved with trifluoroacetic acid, and purified by RP-HPLC. […] Autoradiograms were quantitated by densitometry. […] To study the peptide fragments in water we developed a novel approach, measuring NMR data at 750 MHz using a prototype 10 mm ^1 H pulsed field gradient probe. Modified two-dimensional homonuclear TOCSY and NOESY experiments were measured at several pH values and structural information was derived using standard methods.

ceilan katia yarn (silk) = test: Deposition of radiolabelled β-amyloid peptides onto silk; assay type: binding, Bombyx silkworm; conditions: in the presence of Triton X-100 (FIG. 5)
Description: Peptide deposition was conducted and detected as described in Example 2, except that instead of using brain tissue obtained from patients with Alzheimer's disease, silk was used as a template for β-amyloid deposition. The silk specimens were wound about or placed on a glass microscope slide and treated exactly as a piece of Alzheimer's disease (AD) brain tissue was treated in Example 2, using the same solutions, incubations times, etc. Experiments involving AD brain sections and control fabrics, such as nylon and cotton, were conducted in parallel.
Although screens of the many available silks were done at pH 8.5, later experiments were conducted at a preferably lower pH. Silk deposition experiments were done in 96-well plates. Labelled β-amyloid peptide concentration ranged from 20-100 pM, and the amount of silk used per assay ranged 0.5 to 5 mg.

[1] = target: amyloid plaques in Alzheimer's disease brain tissue (homogenates and thin sections); test: deposition of labelled fragment
silk = test: deposition of radiolabelled peptide onto ceilan katia yarn with Triton X-100

## Radiolabelled rat β-amyloid peptide^1-40: radiolabelled rat β-amyloid peptide 1-40 (DAEFGHDSGFEVRHQKLVFFAEDVGSNKGAIIGLMVGGVV; also: radiolabelled, label site not given here; UniProt P08592 672-711, looked up)
Adult rat brain
  binding to adult rat brain: failed to bind
AD plaques
  binding to Alzheimer's disease or normal human tissue: failed to bind

## βA(1-40)-NH2: derivatized 40-mer, with a carboxyamide at the C-terminus
AD plaques; labelled fragment combined with AD amyloid plaque or silk, relative to βA(1-40)-OH
  deposition activity of fragment (active / not active): active
Ceilan katia yarn (silk)
  deposition of radiolabelled peptide onto ceilan katia yarn (silk): active

B1: βA(26-42)-NH2 (peptide)
peptide: SNKGAIIGLMVGGVVIA-NH2
modifications: also: 125I-labelled after acylation with 4-hydroxyphenylpropionic acid, site not given here
[1]
  fold activity relative to β-amyloid peptide: 3 fold
silk
  fold activity relative to βA(1-40)-OH and βA(1-40)-NH2: 3 times
